Results published in PMC12586182 (Frontiers in Oncology, 2025).

What was measured:
Experiment in all cases: Kinase panel profiling at 1 µmol/L (mobility shift assay, Carna)
Format in all cases: biochemical
Details in all cases: 1 µmol/L of BTK inhibitor
[1] = molecular target: T1, ARG (Homo sapiens, UniProt P42684)
T1 construct: purchased Carna Biosciences

[2] = molecular target: T2, HER2 (Homo sapiens, UniProt P04626)
T2 construct: purchased Carna Biosciences

[3] = molecular target: T3, CLK2 (Homo sapiens, UniProt P49760)
T3 construct: purchased Carna Biosciences

[4] = molecular target: T4, IRAK1 (Homo sapiens, UniProt P51617)
T4 construct: purchased Carna Biosciences

[5] = molecular target: T5, MAPKAPK2 (Homo sapiens, UniProt P49137)
T5 construct: purchased Carna Biosciences

[6] = molecular target: T6, MELK (Homo sapiens, UniProt Q14680)
T6 construct: purchased Carna Biosciences

[7] = molecular target: T7, PKACγ (Homo sapiens, UniProt P22612)
T7 construct: purchased Carna Biosciences

[8] = molecular target: T8, PKD3 (Homo sapiens, UniProt O94806)
T8 construct: purchased Carna Biosciences
T8 sequence (O94806 1-890): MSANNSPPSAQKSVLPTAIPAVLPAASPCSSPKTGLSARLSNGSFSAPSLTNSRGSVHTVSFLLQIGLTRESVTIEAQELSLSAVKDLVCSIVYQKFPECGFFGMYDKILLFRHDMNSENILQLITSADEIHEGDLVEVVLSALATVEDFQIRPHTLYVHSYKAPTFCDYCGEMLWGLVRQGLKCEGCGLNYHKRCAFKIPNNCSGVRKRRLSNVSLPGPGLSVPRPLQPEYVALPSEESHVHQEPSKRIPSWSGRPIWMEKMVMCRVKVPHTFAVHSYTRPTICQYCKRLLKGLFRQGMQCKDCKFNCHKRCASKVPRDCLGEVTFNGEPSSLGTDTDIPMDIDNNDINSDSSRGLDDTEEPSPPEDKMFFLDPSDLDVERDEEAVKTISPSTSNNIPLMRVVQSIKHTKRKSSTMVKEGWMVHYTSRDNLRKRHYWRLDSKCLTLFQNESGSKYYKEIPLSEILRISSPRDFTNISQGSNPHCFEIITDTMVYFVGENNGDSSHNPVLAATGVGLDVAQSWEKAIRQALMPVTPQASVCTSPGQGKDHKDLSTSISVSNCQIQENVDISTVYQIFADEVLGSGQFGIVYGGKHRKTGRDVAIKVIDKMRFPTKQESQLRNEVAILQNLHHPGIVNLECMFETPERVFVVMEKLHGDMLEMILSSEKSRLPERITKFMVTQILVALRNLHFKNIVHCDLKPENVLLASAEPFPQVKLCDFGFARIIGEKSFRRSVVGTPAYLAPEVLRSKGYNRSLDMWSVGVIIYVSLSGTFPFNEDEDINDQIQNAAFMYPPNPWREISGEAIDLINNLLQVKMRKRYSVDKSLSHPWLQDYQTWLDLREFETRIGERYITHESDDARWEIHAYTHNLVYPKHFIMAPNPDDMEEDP

[9] = molecular target: T9, RSK2 (Homo sapiens, UniProt P51812)
T9 construct: purchased Carna Biosciences

[10] = molecular target: T10, SRPK2 (Homo sapiens, UniProt P78362)
T10 construct: purchased Carna Biosciences

[11] = molecular target: T11, TSSK2 (Homo sapiens, UniProt Q96PF2)
T11 construct: purchased Carna Biosciences
T11 sequence (Q96PF2 1-358): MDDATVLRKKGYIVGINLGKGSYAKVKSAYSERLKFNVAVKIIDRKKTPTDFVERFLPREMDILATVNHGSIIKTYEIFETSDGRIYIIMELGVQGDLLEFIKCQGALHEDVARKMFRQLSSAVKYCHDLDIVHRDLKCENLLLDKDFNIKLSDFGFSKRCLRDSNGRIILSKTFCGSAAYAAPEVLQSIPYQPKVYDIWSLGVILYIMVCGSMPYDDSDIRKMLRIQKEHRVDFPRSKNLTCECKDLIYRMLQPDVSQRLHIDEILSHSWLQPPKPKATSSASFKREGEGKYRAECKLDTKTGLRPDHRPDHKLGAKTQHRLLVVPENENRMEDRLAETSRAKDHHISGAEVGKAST

[12] = molecular target: T12, SPHK2 (Homo sapiens, UniProt Q9NRA0)
T12 construct: purchased Carna Biosciences
T12 sequence (Q9NRA0 1-654): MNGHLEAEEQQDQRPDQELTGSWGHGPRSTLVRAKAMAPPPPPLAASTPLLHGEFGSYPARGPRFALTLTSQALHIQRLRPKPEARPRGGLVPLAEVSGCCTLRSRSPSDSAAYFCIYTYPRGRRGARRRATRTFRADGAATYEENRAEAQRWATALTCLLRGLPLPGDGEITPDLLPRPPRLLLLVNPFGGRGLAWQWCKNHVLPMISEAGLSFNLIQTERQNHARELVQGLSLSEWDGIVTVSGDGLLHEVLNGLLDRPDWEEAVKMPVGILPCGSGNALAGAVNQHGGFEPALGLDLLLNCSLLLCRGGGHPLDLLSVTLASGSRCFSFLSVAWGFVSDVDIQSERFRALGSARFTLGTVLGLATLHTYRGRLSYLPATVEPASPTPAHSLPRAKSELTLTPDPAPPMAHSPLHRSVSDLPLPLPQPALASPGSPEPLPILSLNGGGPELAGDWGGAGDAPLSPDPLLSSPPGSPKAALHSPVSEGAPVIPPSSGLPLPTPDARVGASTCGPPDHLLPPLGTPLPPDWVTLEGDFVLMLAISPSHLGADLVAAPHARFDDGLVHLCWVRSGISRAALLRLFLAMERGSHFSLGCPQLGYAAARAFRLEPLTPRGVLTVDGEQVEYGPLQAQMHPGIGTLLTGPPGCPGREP

T5 sequence (P49137 whole entry): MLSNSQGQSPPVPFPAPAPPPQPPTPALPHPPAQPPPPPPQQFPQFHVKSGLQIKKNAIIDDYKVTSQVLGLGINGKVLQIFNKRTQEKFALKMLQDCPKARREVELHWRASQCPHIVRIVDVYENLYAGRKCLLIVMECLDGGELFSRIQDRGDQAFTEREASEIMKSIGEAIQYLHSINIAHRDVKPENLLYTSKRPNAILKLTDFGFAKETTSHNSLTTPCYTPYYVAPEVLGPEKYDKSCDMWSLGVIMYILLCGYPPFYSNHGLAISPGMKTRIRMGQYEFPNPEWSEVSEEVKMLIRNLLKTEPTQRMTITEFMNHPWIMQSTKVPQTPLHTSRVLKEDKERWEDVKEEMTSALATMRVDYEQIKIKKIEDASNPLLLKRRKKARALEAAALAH
T7 sequence (P22612 whole entry): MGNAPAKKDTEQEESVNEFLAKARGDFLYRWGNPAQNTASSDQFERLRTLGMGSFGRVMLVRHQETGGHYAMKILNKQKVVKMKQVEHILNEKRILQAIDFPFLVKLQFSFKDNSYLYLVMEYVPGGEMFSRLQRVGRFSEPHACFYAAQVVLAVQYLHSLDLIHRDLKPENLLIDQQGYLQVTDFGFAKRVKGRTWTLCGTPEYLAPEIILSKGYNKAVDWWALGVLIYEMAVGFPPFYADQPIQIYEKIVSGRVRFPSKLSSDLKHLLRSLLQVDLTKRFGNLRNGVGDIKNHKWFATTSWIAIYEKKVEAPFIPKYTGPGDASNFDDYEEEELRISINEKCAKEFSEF
T2 sequence (P04626 23-1255): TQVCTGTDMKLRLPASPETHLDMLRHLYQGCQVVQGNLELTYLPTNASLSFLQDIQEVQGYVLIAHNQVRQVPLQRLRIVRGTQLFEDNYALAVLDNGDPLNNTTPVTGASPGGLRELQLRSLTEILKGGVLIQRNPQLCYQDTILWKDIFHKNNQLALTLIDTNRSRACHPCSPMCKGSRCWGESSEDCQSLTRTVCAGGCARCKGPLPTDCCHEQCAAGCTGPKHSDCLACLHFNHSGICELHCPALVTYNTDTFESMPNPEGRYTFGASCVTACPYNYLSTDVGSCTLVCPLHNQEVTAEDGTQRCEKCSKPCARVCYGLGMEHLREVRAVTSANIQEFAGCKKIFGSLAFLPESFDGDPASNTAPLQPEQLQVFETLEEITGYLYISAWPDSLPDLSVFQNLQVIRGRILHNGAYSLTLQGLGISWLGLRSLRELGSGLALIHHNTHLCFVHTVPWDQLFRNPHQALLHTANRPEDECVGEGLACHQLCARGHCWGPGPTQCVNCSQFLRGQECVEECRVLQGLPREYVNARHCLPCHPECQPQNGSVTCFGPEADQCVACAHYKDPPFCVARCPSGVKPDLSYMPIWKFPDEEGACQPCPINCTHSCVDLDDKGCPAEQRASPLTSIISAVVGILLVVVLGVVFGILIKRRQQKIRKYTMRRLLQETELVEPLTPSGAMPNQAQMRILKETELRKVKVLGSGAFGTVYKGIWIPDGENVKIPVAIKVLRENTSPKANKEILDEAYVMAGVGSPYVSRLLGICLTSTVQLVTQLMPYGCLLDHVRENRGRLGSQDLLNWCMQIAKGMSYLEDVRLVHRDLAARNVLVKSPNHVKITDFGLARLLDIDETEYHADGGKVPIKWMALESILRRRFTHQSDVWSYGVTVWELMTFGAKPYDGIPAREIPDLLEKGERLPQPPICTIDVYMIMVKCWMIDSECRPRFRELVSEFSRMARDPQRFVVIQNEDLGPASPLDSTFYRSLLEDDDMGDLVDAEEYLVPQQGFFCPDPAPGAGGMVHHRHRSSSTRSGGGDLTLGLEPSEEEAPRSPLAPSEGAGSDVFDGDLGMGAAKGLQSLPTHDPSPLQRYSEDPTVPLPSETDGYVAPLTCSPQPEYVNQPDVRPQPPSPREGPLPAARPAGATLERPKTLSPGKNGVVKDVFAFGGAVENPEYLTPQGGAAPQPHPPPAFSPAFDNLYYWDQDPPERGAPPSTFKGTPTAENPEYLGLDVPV
T4 sequence (P51617 whole entry): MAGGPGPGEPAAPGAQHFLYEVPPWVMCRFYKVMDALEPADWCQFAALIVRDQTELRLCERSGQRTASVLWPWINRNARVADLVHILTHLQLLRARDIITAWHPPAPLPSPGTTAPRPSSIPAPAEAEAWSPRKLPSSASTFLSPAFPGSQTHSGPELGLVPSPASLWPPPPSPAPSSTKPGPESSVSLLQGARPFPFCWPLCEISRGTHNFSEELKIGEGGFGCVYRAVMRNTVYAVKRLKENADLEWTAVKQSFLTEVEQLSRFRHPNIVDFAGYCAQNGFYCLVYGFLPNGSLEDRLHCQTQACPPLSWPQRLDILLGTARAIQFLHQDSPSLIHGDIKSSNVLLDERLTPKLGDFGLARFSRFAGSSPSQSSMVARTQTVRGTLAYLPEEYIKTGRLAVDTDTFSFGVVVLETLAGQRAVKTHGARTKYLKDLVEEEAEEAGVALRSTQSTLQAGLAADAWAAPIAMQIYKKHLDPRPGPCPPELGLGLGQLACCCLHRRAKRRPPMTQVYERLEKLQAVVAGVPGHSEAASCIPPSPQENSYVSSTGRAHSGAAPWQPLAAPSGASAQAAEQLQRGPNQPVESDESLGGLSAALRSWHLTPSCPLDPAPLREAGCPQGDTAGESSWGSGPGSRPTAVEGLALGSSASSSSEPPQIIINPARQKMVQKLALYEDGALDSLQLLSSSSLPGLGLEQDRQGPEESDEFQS
T6 sequence (Q14680 whole entry): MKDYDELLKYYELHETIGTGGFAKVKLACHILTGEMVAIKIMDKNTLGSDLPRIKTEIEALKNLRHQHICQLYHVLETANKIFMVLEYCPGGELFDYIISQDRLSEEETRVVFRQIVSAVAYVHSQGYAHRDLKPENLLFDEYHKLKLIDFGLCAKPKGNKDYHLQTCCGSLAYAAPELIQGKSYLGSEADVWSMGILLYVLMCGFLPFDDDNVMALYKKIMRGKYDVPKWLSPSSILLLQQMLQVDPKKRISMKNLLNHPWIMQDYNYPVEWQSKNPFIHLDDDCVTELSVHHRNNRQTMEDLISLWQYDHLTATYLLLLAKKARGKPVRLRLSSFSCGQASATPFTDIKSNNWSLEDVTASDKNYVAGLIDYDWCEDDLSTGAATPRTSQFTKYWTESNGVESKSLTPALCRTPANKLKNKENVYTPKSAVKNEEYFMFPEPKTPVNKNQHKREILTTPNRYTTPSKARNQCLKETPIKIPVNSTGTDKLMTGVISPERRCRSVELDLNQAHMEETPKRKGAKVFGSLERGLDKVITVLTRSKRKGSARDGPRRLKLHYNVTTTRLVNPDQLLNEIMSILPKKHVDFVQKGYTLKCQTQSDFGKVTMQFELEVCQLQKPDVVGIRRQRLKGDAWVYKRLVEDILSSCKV
T9 sequence (P51812 whole entry): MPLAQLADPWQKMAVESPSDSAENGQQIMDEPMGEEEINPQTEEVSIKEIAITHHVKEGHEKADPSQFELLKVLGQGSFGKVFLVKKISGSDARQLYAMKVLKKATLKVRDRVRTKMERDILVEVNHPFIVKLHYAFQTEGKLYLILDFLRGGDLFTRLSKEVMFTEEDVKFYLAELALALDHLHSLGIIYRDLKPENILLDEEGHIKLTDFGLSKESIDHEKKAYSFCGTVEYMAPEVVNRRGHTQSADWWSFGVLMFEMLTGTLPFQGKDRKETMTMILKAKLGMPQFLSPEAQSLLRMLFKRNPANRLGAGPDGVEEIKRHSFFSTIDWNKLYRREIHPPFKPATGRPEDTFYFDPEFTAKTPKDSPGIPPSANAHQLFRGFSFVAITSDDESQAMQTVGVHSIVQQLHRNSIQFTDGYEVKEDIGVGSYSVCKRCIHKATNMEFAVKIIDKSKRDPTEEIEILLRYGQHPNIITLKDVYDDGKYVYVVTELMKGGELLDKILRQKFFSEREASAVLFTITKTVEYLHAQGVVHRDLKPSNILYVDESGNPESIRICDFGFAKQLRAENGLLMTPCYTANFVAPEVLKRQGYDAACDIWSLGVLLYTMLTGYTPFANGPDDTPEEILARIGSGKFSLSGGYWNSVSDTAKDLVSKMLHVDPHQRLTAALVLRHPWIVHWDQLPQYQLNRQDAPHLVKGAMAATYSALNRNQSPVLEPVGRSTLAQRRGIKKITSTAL
T10 sequence (P78362 whole entry): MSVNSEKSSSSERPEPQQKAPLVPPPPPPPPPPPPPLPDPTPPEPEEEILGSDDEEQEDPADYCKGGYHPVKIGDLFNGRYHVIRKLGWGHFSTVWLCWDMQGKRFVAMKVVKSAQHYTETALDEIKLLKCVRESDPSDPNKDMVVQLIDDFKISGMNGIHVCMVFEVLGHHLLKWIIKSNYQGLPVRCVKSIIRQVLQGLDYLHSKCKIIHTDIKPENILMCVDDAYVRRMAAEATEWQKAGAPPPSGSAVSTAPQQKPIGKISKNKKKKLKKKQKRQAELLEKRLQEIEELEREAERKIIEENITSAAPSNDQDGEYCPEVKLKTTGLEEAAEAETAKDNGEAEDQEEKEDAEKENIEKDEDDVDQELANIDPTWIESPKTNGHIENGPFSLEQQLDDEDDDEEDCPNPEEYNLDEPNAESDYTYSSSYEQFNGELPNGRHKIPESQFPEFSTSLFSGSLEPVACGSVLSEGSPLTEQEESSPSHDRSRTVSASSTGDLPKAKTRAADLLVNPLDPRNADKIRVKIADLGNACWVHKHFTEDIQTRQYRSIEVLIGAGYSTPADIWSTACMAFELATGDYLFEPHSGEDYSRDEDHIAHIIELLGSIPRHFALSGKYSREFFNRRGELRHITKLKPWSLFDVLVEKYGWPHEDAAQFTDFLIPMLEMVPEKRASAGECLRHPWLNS

Structure (SMILES): CC#CC(=O)N1CCC[C@H]1c1nc(-c2ccc(C(=O)Nc3ccccn3)cc2)c2c(N)nccn12 [acalabrutinib]
- Percentage inhibition of kinase enzyme activity [1]: 3.53%
- Percentage inhibition of kinase enzyme activity [2]: 16.11%
- Percentage inhibition of kinase enzyme activity [3]: -6.97%
- Percentage inhibition of kinase enzyme activity [4]: -7.06%
- Percentage inhibition of kinase enzyme activity [5]: -20.51%
- Percentage inhibition of kinase enzyme activity [6]: -0.54%
- Percentage inhibition of kinase enzyme activity [7]: 1.68%
- Percentage inhibition of kinase enzyme activity [8]: -2.07%
- Percentage inhibition of kinase enzyme activity [9]: 0.054%
- Percentage inhibition of kinase enzyme activity [10]: 0.69%
- Percentage inhibition of kinase enzyme activity [11]: -3.11%
- Percentage inhibition of kinase enzyme activity [12]: 6.90%

Structure (SMILES): C=CC(=O)N1CCC([C@@H]2CCNc3c(C(N)=O)c(-c4ccc(Oc5ccccc5)cc4)nn32)CC1 [zanubrutinib]
- Percentage inhibition of kinase enzyme activity [2]: 98.58%

Structure (SMILES): O=C(c1ccc(Oc2ccccc2)cc1Cl)c1c[nH]c2ncnc(N[C@@H]3CC[C@@H](CO)OC3)c12 [nemtabrutinib]
- Percentage inhibition of kinase enzyme activity [1]: 62.68%
- Percentage inhibition of kinase enzyme activity [2]: 99.89%
- Percentage inhibition of kinase enzyme activity [3]: 56.28%
- Percentage inhibition of kinase enzyme activity [4]: -0.39%
- Percentage inhibition of kinase enzyme activity [5]: -7.90%
- Percentage inhibition of kinase enzyme activity [6]: 81.25%
- Percentage inhibition of kinase enzyme activity [7]: 11.12%
- Percentage inhibition of kinase enzyme activity [8]: 16.29%
- Percentage inhibition of kinase enzyme activity [9]: 7.48%
- Percentage inhibition of kinase enzyme activity [10]: 1.38%
- Percentage inhibition of kinase enzyme activity [11]: -0.84%
- Percentage inhibition of kinase enzyme activity [12]: 1.97%

Structure (SMILES): COc1ccc(F)cc1C(=O)NCc1ccc(-c2nn([C@@H](C)C(F)(F)F)c(N)c2C(N)=O)cc1 [pirtobrutinib]
- Percentage inhibition of kinase enzyme activity [1]: -0.47%
- Percentage inhibition of kinase enzyme activity [2]: 35.83%
- Percentage inhibition of kinase enzyme activity [3]: 10.54%
- Percentage inhibition of kinase enzyme activity [4]: -6.46%
- Percentage inhibition of kinase enzyme activity [5]: -13.00%
- Percentage inhibition of kinase enzyme activity [6]: -5.13%
- Percentage inhibition of kinase enzyme activity [7]: 1.36%
- Percentage inhibition of kinase enzyme activity [8]: 2.18%
- Percentage inhibition of kinase enzyme activity [9]: 2.95%
- Percentage inhibition of kinase enzyme activity [10]: -2.34%
- Percentage inhibition of kinase enzyme activity [11]: -11.71%
- Percentage inhibition of kinase enzyme activity [12]: -12.42%

Structure (SMILES): C=CC(=O)N1CCC[C@@H](n2nc(-c3ccc(Oc4ccccc4)cc3)c3c(N)ncnc32)C1 [ibrutinib]
- Percentage inhibition of kinase enzyme activity [1]: 6.86%
- Percentage inhibition of kinase enzyme activity [2]: 100.31%
- Percentage inhibition of kinase enzyme activity [4]: -10.80%
- Percentage inhibition of kinase enzyme activity [5]: -12.65%
- Percentage inhibition of kinase enzyme activity [6]: 8.08%
- Percentage inhibition of kinase enzyme activity [7]: 4.90%
- Percentage inhibition of kinase enzyme activity [8]: 5.48%
- Percentage inhibition of kinase enzyme activity [9]: 7.41%
- Percentage inhibition of kinase enzyme activity [10]: 3.01%
- Percentage inhibition of kinase enzyme activity [11]: -3.91%
- Percentage inhibition of kinase enzyme activity [12]: 9.66%
